# Legend:
# SfKSL [1] = biological target: T1, SfKSL (Salvia fruticosa, UniProt A0A0C5QH30); test: coupled assay with SfCPS, GC-MS; NMR of product from yeast; type: biochemical; conditions: CDP formed in situ by SfCPS from 200 uM GGDP; pH 7.0, 20 mM MgCl2, 0.2 mM MnCl2, room temperature overnight
# T1 construct: gene KSL; pseudomature SfKSLm without predicted N-terminal transit peptide (49 residues); full ORF 1755 bp; lacks gamma domain
# T1 sequence (A0A0C5QH30 50-584): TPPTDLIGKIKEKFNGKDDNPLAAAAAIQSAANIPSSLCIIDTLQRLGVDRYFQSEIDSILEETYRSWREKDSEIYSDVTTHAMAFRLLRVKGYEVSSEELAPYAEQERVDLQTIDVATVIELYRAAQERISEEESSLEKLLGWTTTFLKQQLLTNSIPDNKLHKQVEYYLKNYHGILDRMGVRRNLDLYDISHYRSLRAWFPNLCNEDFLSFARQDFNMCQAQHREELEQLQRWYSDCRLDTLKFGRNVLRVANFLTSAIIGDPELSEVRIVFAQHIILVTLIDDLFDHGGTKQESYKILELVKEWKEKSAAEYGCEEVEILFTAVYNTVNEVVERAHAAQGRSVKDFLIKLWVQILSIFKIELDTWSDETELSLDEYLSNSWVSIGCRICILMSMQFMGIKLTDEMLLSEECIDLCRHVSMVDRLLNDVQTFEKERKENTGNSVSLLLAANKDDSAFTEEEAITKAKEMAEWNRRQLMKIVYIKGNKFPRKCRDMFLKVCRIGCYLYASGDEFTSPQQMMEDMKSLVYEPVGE
# SfKSL [2] = biological target: T1, SfKSL; test: coupled assay with SfCPS, GC-MS of product; type: biochemical; conditions: CDP formed in situ by SfCPS from 200 uM GGDP; pH 7.0, 20 mM MgCl2, 0.2 mM MnCl2, room temperature overnight
# SfCPS = biological target: T2, SfCPS (Salvia fruticosa, UniProt A0A0A7RQ84); test: GC-MS of dephosphorylated product (copalol); type: biochemical; conditions: pH 7.0, 20 mM MgCl2, 0.2 mM MnCl2, 60 uM GGDP, room temperature overnight
# T2 construct: gene CDS; pseudomature SfCPSm without predicted N-terminal transit peptide (30 residues); full ORF 2391 bp
# SfFS = biological target: T3, SfFS (Salvia fruticosa, UniProt A0A0C5QRZ2); test: yeast co-expression, GC-MS; type: cell-based; conditions: co-expressed SfCPS, SfKSL, PtCPR2; also shown in N. benthamiana
# T3 construct: gene CYP76AH24; P450 ORF in pWTDH3, expressed in S. cerevisiae AM104 with SfCPSm, SfKSLm and poplar reductase PtCPR2; also N. benthamiana with AtCPR1
# T3 sequence (A0A0C5QRZ2 1-492): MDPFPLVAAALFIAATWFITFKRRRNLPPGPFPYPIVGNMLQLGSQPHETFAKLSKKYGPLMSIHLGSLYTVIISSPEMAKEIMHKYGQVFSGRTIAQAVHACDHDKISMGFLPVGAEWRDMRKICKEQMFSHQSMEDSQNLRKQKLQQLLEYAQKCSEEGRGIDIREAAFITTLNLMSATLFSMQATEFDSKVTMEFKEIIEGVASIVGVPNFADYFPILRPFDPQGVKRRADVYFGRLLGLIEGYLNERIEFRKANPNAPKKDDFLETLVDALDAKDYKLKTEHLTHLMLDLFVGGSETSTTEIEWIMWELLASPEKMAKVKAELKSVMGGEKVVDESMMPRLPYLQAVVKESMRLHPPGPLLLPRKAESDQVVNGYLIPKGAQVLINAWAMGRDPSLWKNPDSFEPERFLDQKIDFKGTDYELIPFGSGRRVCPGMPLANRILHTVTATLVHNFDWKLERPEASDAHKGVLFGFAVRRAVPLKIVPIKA
# RoFS1 = biological target: T4, RoFS1 (Salvia rosmarinus, UniProt A0A0C5Q4Y6); test: yeast co-expression, GC-MS; type: cell-based; conditions: co-expressed RoCPS1m, RoKSL1f, PtCPR2; also shown in N. benthamiana
# T4 construct: gene CYP76AH22; P450 ORF in pWTDH3, expressed in S. cerevisiae AM113 with RoCPS1m, RoKSL1f and poplar reductase PtCPR2; also N. benthamiana with SfCPS, SfKSL, AtCPR1
# T4 sequence (A0A0C5Q4Y6 1-493): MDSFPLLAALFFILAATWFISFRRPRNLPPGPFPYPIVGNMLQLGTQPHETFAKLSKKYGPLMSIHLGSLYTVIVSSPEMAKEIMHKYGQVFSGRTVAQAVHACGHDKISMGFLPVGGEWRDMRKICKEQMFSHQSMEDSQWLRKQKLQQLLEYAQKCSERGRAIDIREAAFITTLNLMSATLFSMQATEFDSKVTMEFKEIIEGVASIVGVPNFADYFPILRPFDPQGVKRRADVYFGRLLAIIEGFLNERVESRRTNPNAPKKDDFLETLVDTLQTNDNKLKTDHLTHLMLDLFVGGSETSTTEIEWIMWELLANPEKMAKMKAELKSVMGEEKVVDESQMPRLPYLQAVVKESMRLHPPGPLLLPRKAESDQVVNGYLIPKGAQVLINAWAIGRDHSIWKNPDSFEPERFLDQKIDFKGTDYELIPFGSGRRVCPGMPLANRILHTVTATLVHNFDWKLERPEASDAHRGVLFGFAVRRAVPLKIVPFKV
# RoFS2 = biological target: T5, RoFS2 (Salvia rosmarinus, UniProt A0A0C5QEW3); test: yeast co-expression, GC-MS; type: cell-based; conditions: co-expressed RoCPS1m, RoKSL1f, PtCPR2; also shown in N. benthamiana
# T5 construct: gene FS2; P450 ORF in pWTDH3, expressed in S. cerevisiae AM113 with RoCPS1m, RoKSL1f and poplar reductase PtCPR2; also N. benthamiana with SfCPS, SfKSL, AtCPR1
# T5 sequence (A0A0C5QEW3 entry or part of it): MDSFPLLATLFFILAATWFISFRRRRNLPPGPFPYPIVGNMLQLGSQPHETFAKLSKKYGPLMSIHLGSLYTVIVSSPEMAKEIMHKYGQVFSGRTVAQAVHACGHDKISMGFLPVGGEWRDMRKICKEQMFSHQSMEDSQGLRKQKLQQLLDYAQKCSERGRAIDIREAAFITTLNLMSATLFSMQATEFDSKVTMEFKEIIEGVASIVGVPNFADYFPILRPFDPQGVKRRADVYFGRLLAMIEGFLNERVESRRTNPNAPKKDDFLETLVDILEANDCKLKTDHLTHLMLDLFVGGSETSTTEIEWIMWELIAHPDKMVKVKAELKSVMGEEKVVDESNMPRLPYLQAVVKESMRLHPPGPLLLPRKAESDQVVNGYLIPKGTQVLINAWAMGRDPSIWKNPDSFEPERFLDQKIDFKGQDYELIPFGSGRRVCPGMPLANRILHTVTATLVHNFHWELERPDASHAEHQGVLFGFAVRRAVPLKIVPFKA
# T2 sequence (A0A0A7RQ84 entry or part of it): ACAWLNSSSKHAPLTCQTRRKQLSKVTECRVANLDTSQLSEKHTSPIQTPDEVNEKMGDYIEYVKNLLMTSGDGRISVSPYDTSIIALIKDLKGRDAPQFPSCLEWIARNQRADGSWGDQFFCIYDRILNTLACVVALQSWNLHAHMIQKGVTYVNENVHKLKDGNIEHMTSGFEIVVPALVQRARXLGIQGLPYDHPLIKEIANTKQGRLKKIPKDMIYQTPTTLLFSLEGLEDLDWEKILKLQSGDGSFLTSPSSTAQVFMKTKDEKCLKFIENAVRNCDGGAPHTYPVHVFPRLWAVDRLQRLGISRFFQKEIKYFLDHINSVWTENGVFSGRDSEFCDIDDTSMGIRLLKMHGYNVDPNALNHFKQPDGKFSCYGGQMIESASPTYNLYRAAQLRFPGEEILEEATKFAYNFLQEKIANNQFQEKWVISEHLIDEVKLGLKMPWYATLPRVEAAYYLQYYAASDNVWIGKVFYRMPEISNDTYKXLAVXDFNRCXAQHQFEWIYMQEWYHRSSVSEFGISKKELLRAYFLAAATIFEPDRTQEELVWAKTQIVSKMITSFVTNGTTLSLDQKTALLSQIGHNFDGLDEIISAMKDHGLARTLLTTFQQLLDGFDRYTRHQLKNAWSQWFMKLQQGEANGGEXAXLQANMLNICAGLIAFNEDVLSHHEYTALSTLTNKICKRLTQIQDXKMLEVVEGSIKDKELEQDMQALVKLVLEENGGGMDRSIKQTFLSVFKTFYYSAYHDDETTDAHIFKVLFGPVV
smiles,measurement,setting,value
CC(C)C1=CCC2=C(CC[C@H]3C(C)(C)CCC[C@]23C)C1 [miltiradiene],"coupled assay with SfCPS, GC-MS; NMR of product from yeast",SfKSL [1],"revealed a peak, which most closely corresponded to miltiradiene"
C=C1CC[C@H]2C(C)(C)CCC[C@]2(C)[C@H]1CC/C(C)=C/COP(=O)(O)OP(=O)(O)O [CDP],"coupled assay with SfCPS, GC-MS of product",SfKSL [2],simultaneously with SfCPS in order to provide the necessary CDP substrate
same,GC-MS of dephosphorylated product (copalol),SfCPS; detected as copalol after alkaline phosphatase,identify the dephosphorylated product of the SfCPS catalyzed reaction as copalol
CC(C)c1cc2c(cc1O)[C@@]1(C)CCCC(C)(C)[C@@H]1CC2 [ferruginol],"yeast co-expression, GC-MS",SfFS,GC-MS revealed the formation of ferruginol in all three strains analyzed
same,"yeast co-expression, GC-MS",RoFS1,GC-MS revealed the formation of ferruginol in all three strains analyzed
same,"yeast co-expression, GC-MS",RoFS2,GC-MS revealed the formation of ferruginol in all three strains analyzed
CC(C)=CCC/C(C)=C/CC/C(C)=C/CC/C(C)=C/COP(=O)(O)OP(=O)(O)O [GGDP],GC-MS of dephosphorylated product (copalol),SfCPS,His-tagged SfCPS protein was affinity purified and incubated with GGDP
